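Compound exposure: 48 hours, 5 concentrations, 96-well plates. Here, GI50 denotes the concentration required for 50% inhibition of growth.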 The source made the active and inactive calls. Cut-off read from the data, not from the text of the source: active = GI50 up to about 1.1 µM and inactive = higher.
Experiments:
Assay in all cases: NCI-60 cell line screen, 48 h
[1] = test system: MOLT-4
[2] = test system: SF-295
[3] = test system: OVCAR-4
[4] = test system: DMS-114
[5] = test system: HOP-92
[6] = test system: SK-MEL-5
[7] = test system: MCF7
[8] = test system: SNB-75
[9] = test system: HT-29
[10] = test system: HCT-116
[11] = test system: A498
[12] = test system: SK-MEL-2
[13] = test system: MDA-MB-435
[14] = test system: SNB-19
[15] = test system: TK-10
[16] = test system: CCRF-CEM
[17] = test system: HOP-62
[18] = test system: BT-549
[19] = test system: RPMI-8226
[20] = test system: NCI-H522

Structure (SMILES)	GI50 [1]	GI50 [2]	GI50 [3]	GI50 [4]	GI50 [5]	GI50 [6]	GI50 [7]	GI50 [8]	GI50 [9]	GI50 [10]	GI50 [11]	GI50 [12]	GI50 [13]	GI50 [14]	GI50 [15]	GI50 [16]	GI50 [17]	GI50 [18]	GI50 [19]	GI50 [20]
COc1ccc(NC(=O)CC(=O)n2nc(-c3ccccc3)c(/N=N/c3ccc(C)cc3)c2-c2ccccc2)cc1	> 95.9 µM (inactive)	23.8 µM (inactive)	27.5 µM (inactive)	> 49.5 µM (inactive)	16.8 µM (inactive)	> 65.2 µM (inactive)	> 52.1 µM (inactive)	16.4 µM (inactive)	> 88.3 µM (inactive)	34.1 µM (inactive)	> 49.3 µM (inactive)	32.7 µM (inactive)	> 100 µM (inactive)	21.5 µM (inactive)	36.2 µM (inactive)	> 84.7 µM (inactive)	10.4 µM (inactive)	21.2 µM (inactive)	55.7 µM (inactive)	29 µM (inactive)
COC1C(O)C(C)OC(OC2C(Oc3cccc4c(O)c5c(=O)oc6ccc(C)c7c(=O)oc(c34)c5c67)OC(C)C(O)C2O)C1O (stereo not drawn)	0.488 µM (active)	1.29 µM (inactive)	6.24 µM (inactive)	0.918 µM (active)	0.233 µM (active)	1.59 µM (inactive)	0.757 µM (active)	2.49 µM (inactive)	2.63 µM (inactive)	0.731 µM (active)	2.04 µM (inactive)	1.03 µM (active)	2.07 µM (inactive)	–	3.1 µM (inactive)	0.836 µM (active)	1.77 µM (inactive)	1.9 µM (inactive)	1.39 µM (inactive)	0.871 µM (active)
O=S(=O)(c1ccccc1)C1CN(Cc2ccccc2)CCN(Cc2ccccc2)C1	7.24 µM (inactive)	73.8 µM (inactive)	9.79 µM (inactive)	10 µM (inactive)	–	18.6 µM (inactive)	36.8 µM (inactive)	61.5 µM (inactive)	24.5 µM (inactive)	18.1 µM (inactive)	> 100 µM (inactive)	36.8 µM (inactive)	20.9 µM (inactive)	> 60.4 µM (inactive)	63.4 µM (inactive)	5.14 µM (inactive)	> 76.2 µM (inactive)	80.5 µM (inactive)	4.55 µM (inactive)	8 µM (inactive)
CN(C)CCN1C(=O)c2cccc3cc([N+](=O)[O-])cc(c23)C1=O [MITONAFIDE]	0.0406 µM (active)	0.209 µM (active)	1.2 µM (inactive)	0.223 µM (active)	0.255 µM (active)	0.237 µM (active)	0.165 µM (active)	0.194 µM (active)	0.301 µM (active)	0.261 µM (active)	0.167 µM (active)	1.37 µM (inactive)	1.75 µM (inactive)	0.25 µM (active)	2.13 µM (inactive)	0.163 µM (active)	0.146 µM (active)	0.904 µM (active)	0.443 µM (active)	0.281 µM (active)
